Measurements from patent US20210393539A1, “FERRITIN NANOPARTICLES COMPRISING A CHEMOTHERAPEUTIC AGENT” (INTHENA S.R.L., priority 2018, published 2021).

Experiments:
patient-derived PBMC = tested on: patient-derived PBMC
Description: FIG. 1: DOX effects on proliferation potential of PBMC from patients under neoadjuvant chemotherapy.
A. Flow cytometry of DOX internalization profile in PBMC isolated from a representative patient before and after DOX parenteral infusion.
B. Quantification of Mean Fluorescence Intensity (MFI) in PBMC isolated from patients. The profiles represent the values of DOX fluorescence in each patient before and after chemotherapy. The histogram reports the mean DOX fluorescence value between all the samples analyzed.
C. Representative image of proliferation analysis of PBMC isolated from BC patients before and after 1 cycle of neoadjuvant chemotherapy with DOX using CFSE assay.
D. Quantification of proliferative index at different days of culture after Concanavalin A stimulation (ConA). The proliferation index is the ratio between proliferating cells and progenitor cells. The absence of proliferation is represented by a proliferative index of 1.
FIG. 2: Characterization of lymphocytes subpopulations that internalize DOX. Flow cytometry immunophenotyping of T-Lymphocytes CD8+ e CD4+ to identify populations that internalize DOX (high, int, low). CM: Central Memory, EM: Effector Memory.

[1] = mouse, in vivo

COc1cccc2c1C(=O)c1c(O)c3c(c(O)c1C2=O)C[C@@](O)(C(=O)CO)C[C@@H]3O[C@H]1C[C@H](N)[C@H](O)[C@H](C)O1 [DOX, doxorubicin]
DOX uptake by lymphocyte sub-populations (patient-derived PBMC; FIG. 2): naïve T-cells (CD3+CD8+/CD4+CD45RO−) displayed the highest DOX uptake | DOX internalization in PBMC (patient-derived PBMC; PBMC isolated after chemotherapy (FIG. 1)): promptly internalized DOX | proliferation in response to mitogenic stimulations (patient-derived PBMC; after versus before chemotherapy (FIG. 1)): dramatic proliferative impairment | cardiomyocyte cross-section area [1]: increase in cardiomyocyte cross-section area | mitochondria area and cristae morphology [1]: alteration in mitochondria area and cristae morphology | mitochondria number in heart tissue [1]: increase in mitochondria number | mitochondrial membrane potential and amount of reduced glutathione [1]: induced alterations
